# Counter-ions that a name gives are not always drawn.
# What was measured:
# [1] = Solubility (stated with the preparation); type: physicochemical
# [2] = Hypolipidic activity in rats on hyperlipidic diet (Table IV); type: in vivo; parameters: Burstein Test: unit not given here; details: for Total Cholesterol / Total Lipids / Burstein Test, % inhibition / Total Cholesterol, % inhibition / Total Lipids, % inhibition / Burstein Test: Table IV; for Burstein Test, % inhibition / Total Cholesterol, % inhibition / Total Lipids, % inhibition: normal = 100%, hyperlipidic = 0%
# Description: In Table IV below the following results have been obtained.
# A -- in rats receiving a normal diet (percentage inhibition = 100%);
# B -- in rats receiving a hyperlipidic diet (percentage inhibition = 0%);
# C -- in rats receiving the same hyperlipidic diet B with a daily dose of 0.1 g/kg of a reference normolipidemiant LIPAVLON [ethyl-2-(p-chlorophenoxy)-2-methylpropionate; International name: CLOFIBRATE];
# D -- in rats receiving the same hyperlipidic diet B with a daily dose of 0.1 g/kg of a reference normolipidemiant ATHEROLIP [aluminium salt of 2-(p-chlorophenoxy)-2-methylpropionic acid];
# E -- in rats receiving the same hyperlipidic diet B with a daily dose of 0.1 g/kg of a reference normolipidemiant, LL 1558 [1,10-bis(2-hydroxyethyl-thio)decane];
# F -- in rats receiving the same hyperlipidic diet B with a daily dose 0.010 g/kg, 0.025 g/kg or 0.050 g/kg of CRL 40046.
# The averages of the tests effected on CRL 40 055 in three different doses and calculated comparatively to reference products corresponding to various experiments allow an activity of the product to be concluded as follows: […]
# [3] = Experimental standard II: normal rats, five days oral treatment; type: in vivo, normal male Wistar rats; details: oral dose of 20 mg/kg, vs untreated normal rats
# Method: The hypolipaemiant properties of the CRL 40 122 have been studied in rats according to two different standard experiments: A study on normal Wistar rats (standard II). The experiment was carried out over five days on normal male Wistar rats. The animals, numbering 8 per dose of the product to be studied, were treated orally daily, the last feed taking place 3 hours before the animals were killed. Each series was divided into two groups of animals: one group killed after 3 days of experiment; the other group killed after 5 days of experiment. The results were determined by comparison with 8 normal rats subjected to the same experimental conditions and not treated.
# [4] = Overall activity from both experimental standards I and II; type: in vivo, Wistar rats; details: for product activity: of the order of
# Method: The hypolipaemiant properties of the CRL 40 122 have been studied in rats according to two different standard experiments:
# The experiment was conducted for two weeks on Wistar rats, subjected to a daily hyperlipidic diet at the dose of about 20 g for an animal of 150 g in average.
# The activity of the product studied was determined by comparison with normal control groups of rats and with groups of rats subjected to a hyperlipidic diet and not treated. For each dose of CRL 40 122 there were three groups of five animals each (control group, group only receiving the hyperlipidic diet, and treated group). The results obtained correspond to the average of each of the series. A very interesting activity of CRL 40 122 appeared at active doses of 10 mg to 50 mg/kg in rats subjected to a hyperlipidic diet (decrease from 64 to 34% of the rate of blood lipids according to dose; decrease of cholesterol from 68 to 41%).
# The experiment was carried out over five days on normal male Wistar rats. The animals, numbering 8 per dose of the product to be studied, were treated orally daily, the last feed taking place 3 hours before the animals were killed. Each series was divided into two groups of animals: one group killed after 3 days of experiment; the other group killed after 5 days of experiment.
# The results were determined by comparison with 8 normal rats subjected to the same experimental conditions and not treated.
# Overall these tests led to the following conclusions:
# 1. The two experimental standards, although very different give rise to a product activity of the order of: […]
# mice = experiment: Acute toxicity by oral dose, mice; type: in vivo
# Description: (§1) The product is not toxic. The experiments relating to acute toxicity by oral dose for mice and rats have given evidence that there is no mortality amongst animals treated up to a dose of 5 g/kg.
# rats = experiment: Acute toxicity by oral dose, rats; type: in vivo; details: up to a dose of 5 g/kg
# Description: as §1
# [5] = Human therapeutics: patients suffering from hyperlipaemia and hypercholesterolaemia; type: in vivo
# [6] = first experiment, hyperlipidic diet + product 0,1g/kg daily
# [7] = second experiment, hyperlipidic diet + product 0,1g/kg daily
# [8] = third experiment, hyperlipidic diet + product 0,1g/kg daily
# [9] = total dose of 400 mg per day, capsules of 100 mg and 200 mg
# [10] = first experiment, hyperlipidic diet + product 0,050g/kg daily
# [11] = second experiment, hyperlipidic diet + product 0,025g/kg daily
# [12] = third experiment, hyperlipidic diet + product "010g/kg" daily
smiles,measurement,setting,value
"OCCSCCCCCCCCCSCCO [CRL 40 116, 1,9Bis(2-hydroxyethylthio)-nonane]",solubility in alcohol,[1],soluble
same,solubility in water,[1],insoluble
"CCOC(=O)C(C)(C)Oc1ccc(Cl)cc1 [Lipavlon, ethyl-2-(p-chlorophenoxy)-2-methylpropionate]",Total Cholesterol,[2]; [6],2.47 g/L
same,Total Lipids,[2]; [6],7.75 g/L
same,"Burstein Test, % inhibition",[2]; [6],49%
same,"Total Cholesterol, % inhibition",[2]; [6],46%
same,"Total Lipids, % inhibition",[2]; [6],37%
same,Total Cholesterol,[2]; [7],3 g/L
same,Total Lipids,[2]; [7],9.2 g/L
same,"Burstein Test, % inhibition",[2]; [7],27%
same,"Total Cholesterol, % inhibition",[2]; [7],36%
same,"Total Lipids, % inhibition",[2]; [7],20%
same,Total Cholesterol,[2]; [8],1.58 g/L
same,Total Lipids,[2]; [8],7.3 g/L
same,"Burstein Test, % inhibition",[2]; [8],25%
same,"Total Cholesterol, % inhibition",[2]; [8],60%
same,"Total Lipids, % inhibition",[2]; [8],22%
"CC(C)(Oc1ccc(Cl)cc1)C(=O)O [Atherolip, aluminium salt of 2-(p-chlorophenoxy)-2-methylpropionic acid]",Total Cholesterol,[2]; [6],2.08 g/L
same,Total Lipids,[2]; [6],6.8 g/L
same,"Burstein Test, % inhibition",[2]; [6],67%
same,"Total Cholesterol, % inhibition",[2]; [6],59%
same,"Total Lipids, % inhibition",[2]; [6],49%
"CC(CO)SCCCCCCCCCCSC(C)CO (racemic) [CRL 40 122, (±)-2,15-Dimethyl-3,14-dithia-1,16-hexadecanediol]",decrease in cholesterol,[3],23%
same,decrease in total lipids,[3],31%
same,appearance of activity (onset),[4],after the third day of treatment
same,product activity,[4]; dose of 10 mg/kg,~20%
same,product activity,[4]; dose of 20 mg/kg,~30%
same,product activity,[4]; dose of 50 mg/kg,~60%
same,toxicity (in words),"mice; acute oral, mice and rats",not toxic
same,mortality,"mice; oral, mice, up to a dose of 5 g/kg",no mortality
same,mortality,rats,no mortality
same,use in human therapeutics (in words),[5]; capsules dosed at 100 mg and at 200 mg,used with success
same,hypercholesterolaemia,[5]; [9],decrease after several days of treatment
same,hyperlipaemia,[5]; [9],decrease after several days of treatment
same,solubility in water,[1],insoluble
"OCCSCCCCCCCCSCCO [CRL 40 077, 1,8-Bis(2-hydroxyethyl-thio)-octane]",solubility in alcohol,[1],soluble
same,solubility in water,[1],insoluble
"CC(CO)SCCCCCCCCCSC(C)CO (centres unmarked) [CRL 40 193, 2,14-Dimethyl-3,13-dithia-1,15-pentadecanediol]",solubility in water,[1],insoluble
"CC(C)(CO)SCCCCCCCCCCSC(C)(C)CO [CRL 40 055, 2,2,15,15-Tetramethyl-3,14-dithia-1,16-hexadecanediol]",Burstein Test,[2]; [10],64
same,Total Cholesterol,[2]; [10],2.29 g/L
same,Total Lipids,[2]; [10],7.45 g/L
same,"Burstein Test, % inhibition",[2]; [10],58%
same,"Total Cholesterol, % inhibition",[2]; [10],51%
same,"Total Lipids, % inhibition",[2]; [10],41%
same,Burstein Test,[2]; [11],82
same,Total Cholesterol,[2]; [11],2.43 g/L
same,Total Lipids,[2]; [11],8.06 g/L
same,"Burstein Test, % inhibition",[2]; [11],30%
same,"Total Cholesterol, % inhibition",[2]; [11],53%
same,"Total Lipids, % inhibition",[2]; [11],37%
same,Total Cholesterol,[2]; [12],3.81 g/L
same,Total Lipids,[2]; [12],11.3 g/L
same,"Burstein Test, % inhibition",[2]; [12],0%
same,"Total Cholesterol, % inhibition",[2]; [12],0%
same,"Total Lipids, % inhibition",[2]; [12],0%
same,activity (in words),[2]; dose of 0.010 g/kg,the activity appears to have completely disappeared
same,activity as compared with the reference products (in words),[2]; dose of 0.025 g/kg vs reference products at 0.1 g/kg,substantially constant activity as compared with the reference products
same,solubility in water,[1],insoluble
"OCCSCCCCCCCSCCO [CRL 40 120, 1,7-Bis(2-hydroxyethyl-thio)-heptane]",solubility in alcohol,[1],soluble
same,solubility in water,[1],insoluble
"OCCC(CO)SCCCCCCCCCCSC(CO)CCO (centres unmarked) [CRL 40 176, 1,18-Dihydroxy-3,16-di(hydroxymethylene)-4,15-dithia-octadecane]",solubility in water,[1],insoluble
"OCCSCCCCCCCCCCCSCCO [CRL 40 194, 1,11-Bis-(2-hydroxyethyl-thio)-undecane]",solubility in water,[1],insoluble
"OCCSCCCCCCSCCO [CRL 40 085, 1,6-Bis(2-hydroxyethyl-thio)-hexane]",solubility in alcohol,[1],soluble
same,solubility in water,[1],insoluble
"OCC(O)CSCCCCCCCCCCSCC(O)CO (centres unmarked) [CRL 40 155, 1,10-Bis(2,3-dihydroxypropyl-thio)decan]",solubility in water,[1],insoluble
"OCCSCCCCCCCCCCSCCO [LL 1558, 1,10-bis(2-hydroxyethyl-thio)decane]",Burstein Test,[2]; [7],38
same,Total Cholesterol,[2]; [7],1.33 g/L
same,Total Lipids,[2]; [7],5.1 g/L
same,"Burstein Test, % inhibition",[2]; [7],87%
same,"Total Cholesterol, % inhibition",[2]; [7],85%
same,"Total Lipids, % inhibition",[2]; [7],82%
same,Burstein Test,[2]; [8],37
same,Total Cholesterol,[2]; [8],1.33 g/L
same,Total Lipids,[2]; [8],4.5 g/L
same,"Burstein Test, % inhibition",[2]; [8],85%
same,"Total Cholesterol, % inhibition",[2]; [8],70%
same,"Total Lipids, % inhibition",[2]; [8],77%

# — patent publication US4049829A, “Sulphur containing hydroxy aliphatic compounds” (Societe anonyme dite: Laboratoire L. Lafon, priority 1974, dated 1977)
